Ends that are not written are not given here.

The subject of one assay is HUVEC. The experiment in a line: Scratch wound assay (HUVEC migration). The note with it: stimulated with 50 ng/ml rhVEGF, 16 h. The format is cell-based, human. The method, then:
Scratch Wound Assay. HUVEC were cultured on 0.1% gelatin coated 24-well plates. Confluent cells were incubated overnight with starving media, then they were scraped using sterilized 200-μl pipette tips and stimulated with 50 ng/ml of rhVEGF with or without VEGF mimic peptides for 16 h at 37° C. Cells were fixed and images were captured immediately at 40× magnification from light microscopy and cells that migrated to the scraped area were counted using imageJ software.
VEGF mimic peptides inhibit cell migration in a Scratch Wound Assay. New blood vessel formation requires that the endothelial cells migrate towards the sources of growth factor. […] We used the scratch wound assay with HUVEC to observe the ability of the VEGF mimic peptides in inhibiting endothelial cell migration. […] Growth conditions (medium supplemented with 20% FBS and endothelial cell growth supplements).

The target of a further assay is T1, VEGFR-2 (Homo sapiens, UniProt P35968).
T1 construct: host or cells: 293/KDR cells
T1 sequence (P35968 20-1356): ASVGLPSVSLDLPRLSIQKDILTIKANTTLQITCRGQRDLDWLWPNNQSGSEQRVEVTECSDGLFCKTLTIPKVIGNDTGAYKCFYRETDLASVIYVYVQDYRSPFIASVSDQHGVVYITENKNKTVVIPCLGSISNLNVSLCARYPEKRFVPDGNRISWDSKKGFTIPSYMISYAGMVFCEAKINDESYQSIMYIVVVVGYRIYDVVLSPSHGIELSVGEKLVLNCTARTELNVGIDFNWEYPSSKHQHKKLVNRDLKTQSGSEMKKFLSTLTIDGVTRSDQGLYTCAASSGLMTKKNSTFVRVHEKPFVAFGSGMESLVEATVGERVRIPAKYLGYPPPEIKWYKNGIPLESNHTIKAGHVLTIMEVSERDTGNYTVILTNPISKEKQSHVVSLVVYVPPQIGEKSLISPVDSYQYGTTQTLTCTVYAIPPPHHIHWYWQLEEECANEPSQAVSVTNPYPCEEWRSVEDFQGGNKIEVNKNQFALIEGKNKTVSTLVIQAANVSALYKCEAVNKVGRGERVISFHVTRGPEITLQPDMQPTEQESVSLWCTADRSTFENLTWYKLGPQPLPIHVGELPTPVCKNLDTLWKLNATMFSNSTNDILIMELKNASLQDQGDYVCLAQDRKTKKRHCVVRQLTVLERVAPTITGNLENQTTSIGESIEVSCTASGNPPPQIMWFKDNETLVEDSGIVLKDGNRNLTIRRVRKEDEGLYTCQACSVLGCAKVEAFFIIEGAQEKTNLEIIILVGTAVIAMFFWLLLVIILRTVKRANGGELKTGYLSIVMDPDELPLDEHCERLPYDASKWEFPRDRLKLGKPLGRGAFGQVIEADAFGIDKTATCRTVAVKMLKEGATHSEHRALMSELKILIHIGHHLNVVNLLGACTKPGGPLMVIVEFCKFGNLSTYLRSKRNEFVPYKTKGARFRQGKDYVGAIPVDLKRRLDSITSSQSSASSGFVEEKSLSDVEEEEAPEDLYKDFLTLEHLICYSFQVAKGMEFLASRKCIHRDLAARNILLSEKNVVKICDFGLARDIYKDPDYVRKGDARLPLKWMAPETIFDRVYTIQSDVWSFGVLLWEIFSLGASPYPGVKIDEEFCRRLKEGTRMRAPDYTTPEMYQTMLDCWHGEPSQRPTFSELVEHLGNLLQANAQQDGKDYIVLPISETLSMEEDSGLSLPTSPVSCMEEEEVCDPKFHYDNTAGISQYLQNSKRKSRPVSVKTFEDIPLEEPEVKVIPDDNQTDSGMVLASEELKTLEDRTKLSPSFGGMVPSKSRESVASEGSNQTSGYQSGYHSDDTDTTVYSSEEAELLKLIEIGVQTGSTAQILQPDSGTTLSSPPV
The assay is described as follows: VEGFR-2 phosphorylation in 293/KDR cells, quantified with Human Phospho-VEGF R2/KDR DuoSet IC kit. The format is cell-based. The note with it: 293/KDR cells stimulated with rhVEGF; control (only rhVEGF) taken as 100%. The procedure: 293/KDR cells (5×10^5 cells/well) were seeded on 6-well plates in DMEM medium supplemented with 10% FBS. After overnight incubation in starving medium (no FBS) cells were stimulated with rhVEGF for 5 min. Cells were washed in cold PBS supplemented with 1 mM sodium orthovanadate and harvested into RIPA lysis buffer (Santa Cruz Biotechnology, Santa Cruz, Calif.) and incubated on ice for 30 min and cell lysate was collected after centrifugation at 13000 rpm for 10 min. Cell lysate was kept at −80° C. until used for Western blotting detecting phosphoro-KDR and total KDR as described above.
Conformational VEGF mimic peptide prevents VEGFR-2 phosphorylation. VEGFR-2 (also known as […] or KDR) has been characterized as a tyrosine receptor type III. VEGFR-2 activation is promoted by dimerization upon VEGF binding. VEGFR-2 contains several tyrosine residues that can be phosphorylated, triggering several pathways such as proliferation, migration and survival in the endothelial cells. […] All three VEGF mimic peptides were able to decrease the level of receptor phosphorylation (FIG. 5); however, the inhibitory effect was unable to be quantified, due to the limited detection of VEGFR-2 in the Western blotting. […] The percentage of inhibition was calculated assuming the phosphorylation level of control (only rhVEGF) was 100% and the results are represented in FIG. 6B.

Assay [1] has as its target T2, extracellular domain of VEGFR-2 (KDR-Fc) (Homo sapiens, UniProt P35968).
T2 construct: the extracellular domain of VEGFR-2(KDR-Fc) was injected as ligand; Fc; purchased R&D System
The experiment in a line: Surface plasmon resonance (BIAcore 3000): KDR-Fc injected over immobilized VEGF mimic peptides. The note with it: peptide immobilized on CM5 chip, 1:1 (Langmuir) model, read-out: equilibrium binding constant (KD), binding affinity. The method, then:
Surface Plasma Resonance. Binding assays were performed using a Biacore 3000 instrument (Pharmacia Bio-sensor, Uppsala, Sweden). The experiments were performed at room temperature using HBS-EP buffer (25 mM HEPES, pH 7.4, […], 3.4 mM EDTA, and 0.005% surfactant P20). Peptides were coupled onto CM5 chip surfaces at 10 μL/min using a standard amine coupling protocol with EDC (N-ethyl-N′-[dimethylaminopropyl]carbodiimide)/NHS (N-hydroxysuccinimide). KDR-Fc (R&D System) at several concentrations in HBS-EP buffer. Was injected at a flow rate of 10 μL/min. Data analysis was performed with BIAsimulation software version 3.1 (Pharmacia Biosensor). […] To obtain measurement of anti-peptides binding affinities similar a experiment was carried out, but rhVEGF was immobilized onto CM5 chip surface and anti-peptides were injected at several concentrations.
Conformational VEGF mimic peptide binds to VEGFR-2. Binding assay was carried out using BIAcore 3000 instrument. Designed VEGF mimic peptide VEGF-P3 (NC) and (CYC) were immobilized onto chip CM5 and the extracellular domain of VEGFR-2(KDR-Fc) was injected as ligand. […] Global analysis was performed with data points fitting to a simple 1:1 (Langmuir) binding model. The equilibrium binding constant (KD) takes Ka and Kd values in consideration and represents the binding affinity. […]
A general note: Surface plasmon resonance follows binding to a sensor surface in real time, without labels.

For a further assay, the target named is T3, HER-2 (Homo sapiens, UniProt P04626).
T3 construct: The human breast tumor cell lines BT-474 were purchased from American Type Culture Collection; host or cells: BT-474
The experiment in a line: HER-2 phosphorylation assay in BT-474 cells, peptides (Duoset IC human phospho-ErbB2). The format is cell-based. The note with it: peptides then HRG 10 min. The method, then: Phosphorylation assay. 1×10^6 BT-474 cells were plated in each well of a six well plate and incubated overnight at 37° C. Culture medium was removed and the cell layer washed once with PBS low score (1% FCS). Culture medium was added to the wells and plates incubated overnight. Cells were washed and 50 ug of peptides, anti-peptide Abs and controls in binding buffer (0.2% w/v BSA, RPMI 1640 medium with 10 mM HEPES (pH 7.2) was added to the wells and incubated at room temperature for 1 h. HRG (5 nM/well) was added and the incubation continued for 10 min. Binding buffer was removed and the cell layer washed once with PBS before adding 1 ml of RIPA lysis buffer (Santa Cruz Biotechnology, Santa Cruz, Calif.). Plates were rocked at 4° C. for 2 h. Lysates were removed, spun at 13000×g and supernatants collected. Protein concentration of each sample was measured by Coomassie plus protein assay reagent kit and lysates were stored at −80° C. Phosphorylation was determined by Duoset IC for human phosphor-ErbB2 according to the manufacturer's directions (RSD Systems).
Peptide inhibition of Phosphorylation. The main mode of action of Pertuzumab is to inhibit phosphorylation. This is due to the fact that it sterically blocks the dimerization domain of HER-2 thereby preventing the formation of dimers with other HER receptors and thus interrupting downstream signaling. […]

The test system of assay [2] is TS/A cells (HER-2 negative). The experiment in a line: Proliferation assay (MTT) of TS/A cells in presence of HRG. The class given is cell-based, mouse. The note with it: HER-2 negative cell line.
Procedure: Proliferation assay. BT-474, SK-BR-3, MDA-468 and TS/A cells (1×10^4 were plated in 96-well flat-bottom plates overnight. Growth medium was replaced with low sera (1% FCS) medium and the cells were incubated overnight. Media were removed from the wells and replaced with low sera medium containing HER-2 and VEGF mimic peptides at concentrations ranging from 25-150 ug/ml and plates were incubated an additional 1 h at 37° C. before adding 10 ng/ml HRG in 1% medium. Plates were incubated for an additional 72 h at 37° C. before adding MTT (5 mg/ml) to each well. Plates were incubated 2 h at 37° C., and 1000 of extraction buffer (20% SDS, 50% dimethylformamide (pH 4.7)) was added to each well. Plates incubated overnight at 37° C. and read on an ELISA reader at 570 nm with 655 nm background subtraction Inhibition percentage was calculated as 100%×(Untreated cells-Peptide treated cells)/(Untreated cells).
Antiproliferative effects of peptides. The antiproliferative effects of the peptides were tested using four different cell lines (Bt-474 and SK-BR-3: HER-2^high, MDA-468: HER-2^low and TS/A: HER-2^negative) (FIGS. 13A-13D) in the presence of HRG to activate the HER-3 receptor. […] The cells were incubated with the peptides before being exposed to HRG.
Assay [3] can be described thus: Active immunization of rabbits, antibody titers by ELISA. The format is in vivo, rabbit. The note with it: outbred rabbits, MVF chimeric peptide. The method, then: Active immunization and Ab purification. Mice and rabbits were immunized subcutaneously at multiple sites with a total of 1 mg (rabbits) or 100 μg (mice) of peptide dissolved in ddH2O emulsified (1:1) in Montanide ISA720 vehicle (Seppic) with 100 μg of N-acetylglucosamine-3-yl-acetyl-1-alanyl-d-isoglutamine (nor-MDP). Balb/c mice. Rabbits and mice were boosted with the respective doses at 3 week intervals. Rabbit blood was collected via the central auricular artery and sera tested for antibody titers. Anti-peptide antibodies were purified by affinity chromatography using a Protein A/G column (Pierce) from high titer antibody sera.
ELISA. Antibody titers were determined as previously described and it is defined as the reciprocal of the highest serum dilution with an absorbance of 0.2 or greater after subtracting the background.
Antigenicity and Immunogenicity of Peptides. Earlier studies in our lab have shown that the MVF-HER-2-266 was highly immunogenic in both rabbits and mice. […] We had to do up to six immunizations with the D-amino acid peptide before we could obtain higher abs titers while with the L-amino acids only four immunization are enough to produce higher titers. We therefore used the abs raised against these peptides to test their effects on cancer cells in vitro.
(ELISA stands for enzyme-linked immunosorbent assay.)

T2 sequence (P35968 20-764 limits assumed): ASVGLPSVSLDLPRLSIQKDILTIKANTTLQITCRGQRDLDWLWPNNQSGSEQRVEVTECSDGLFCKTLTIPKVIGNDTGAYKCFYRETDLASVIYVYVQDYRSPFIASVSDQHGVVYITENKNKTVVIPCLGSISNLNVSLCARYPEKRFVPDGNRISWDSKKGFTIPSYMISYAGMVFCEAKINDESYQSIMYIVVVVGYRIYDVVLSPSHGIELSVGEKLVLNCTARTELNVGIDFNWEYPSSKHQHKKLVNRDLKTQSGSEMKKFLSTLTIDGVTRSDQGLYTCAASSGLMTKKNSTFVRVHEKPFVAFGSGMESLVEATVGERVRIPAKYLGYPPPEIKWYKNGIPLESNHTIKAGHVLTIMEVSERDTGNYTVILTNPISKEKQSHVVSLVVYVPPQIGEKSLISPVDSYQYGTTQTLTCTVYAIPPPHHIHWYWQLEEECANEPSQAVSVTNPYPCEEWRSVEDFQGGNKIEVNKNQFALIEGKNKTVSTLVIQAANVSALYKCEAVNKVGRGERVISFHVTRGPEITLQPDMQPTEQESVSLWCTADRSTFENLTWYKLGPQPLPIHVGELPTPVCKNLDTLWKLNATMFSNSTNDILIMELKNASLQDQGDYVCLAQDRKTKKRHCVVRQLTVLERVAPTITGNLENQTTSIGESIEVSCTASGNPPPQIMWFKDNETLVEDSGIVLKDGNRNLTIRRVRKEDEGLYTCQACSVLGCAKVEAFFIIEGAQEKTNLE

As to `CC(C)c1cc(/C=C(\C#N)C(=O)NCCCc2ccccc2)cc(C(C)C)c1O` [SU1498], the “inhibition of HUVEC migration” value with HUVEC was “approximately 50%”.

Consider ITMQIMRIKPHQGQHIGEMSF [VEGF 102-122], for which the “inhibition of VEGFR-2 phosphorylation” value against VEGFR-2 was determined as 4%. The Kd – broadly, the equilibrium constant for the complex coming apart – in assay [1] turned out to be 45 nM.

For the compound “LHCPALVTYNTDTFESMPNPEGRYTFGASCV [HER-2-266-296]”, in the assay with HER-2, the “inhibition rate of HER-2 phosphorylation” value is recorded as 38%. The “antiproliferative effect on TS/A cells” value in assay [2] is “inhibitory effects”.

Turning to “NH2-D[FSMECIMIKPHQGQHIGCQMTI]-COOH [VEGF-P4-CYC]”, at HER-2, the “inhibition rate of HER-2 phosphorylation” value came out at 39%. Also, in assay [3], the “immunogenicity (antibody titers)” value is “immunogenic”.
